Earlier results as cited in patent publication US8197866B1, “Herbal treatment for diabetes mellitus, type II” (priority 2009, dated 2012).

Columns and labels:
[1] = tested on: streptozocin-induced diabetes
[2] = tested on: TPA-mediated tumor promotion

SMILES	anti-diabetic activity [1]	effect on TPA-mediated tumor promotion [2]
C[C@@H]1O[C@@H](OC[C@H]2O[C@@H](Oc3cc(O)cc4oc(-c5ccc(O)c(O)c5)cc(=O)c34)[C@H](O)[C@@H](O)[C@@H]2O)[C@H](O)[C@H](O)[C@H]1O [luteolin 5-rutinoside]	marked anti-diabetic activity	–
O=c1cc(-c2ccc(O)cc2)oc2cc(O)cc(O)c12 [apigenin]	–	inhibitory effect
